One compound from patent publication US20240238299A1, “USE OF PYRROLOPYRIMIDINE COMPOUND” (GUANGZHOU JOYO PHARMATECH CO., LTD, priority 2021, published 2024) can be followed below.

Usually pIC50 stands for the negative decadic logarithm of the IC50, by convention in mol/L. A low value points to a high IC50.

SMILES strings stand for the structures. pIC50: −log10 of the molar value.

The test system of assay [1] is MOG35-55-induced EAE mouse spinal cord. The assay can be described thus: EAE mouse model, spinal cord H&E and LFB pathological scoring. The assay is classed as in vivo, C57BL/6 mice. Conditions: day 28. Here is the method: For each group consisting of 5 mice, euthanasia was performed followed by cardiac perfusion with saline. Subsequently, an equal volume of 10% formalin was perfused. Spinal cord tissues from the mice were collected, soaked in […], and then sectioned. Hematoxylin & Eosin (H&E) staining and Luxol Fast Blue (LFB) staining were performed, along with pathological scoring.
At the end of the experiment, the spinal cords of mice were collected, with 2 in the normal control group and 5 in each of the remaining groups. The spinal cords were fixed in formalin, followed by paraffin embedding and sectioning. Two sections were taken from each mouse and subjected to H&E and FLB staining for pathological observation. Scoring was done for cell infiltration, lesion areas, and demyelination. […] Specifically, after H&E staining of the mouse spinal cord, cell infiltration (A) and lesion area (B) in the spinal cord sections were counted. After LFB staining, the degree of demyelination (C) in the spinal cord sections was scored. Data were presented as mean±standard error of the mean (mean±SEM). *p<0.05, **p<0.01, ***p<0.001, ****p<0.0001, vs. vehicle control group (Vehicle), one-way ANOVA.

The subject of assay [2] is IL-2-induced pSTAT5 in hPBMC. The assay can be described thus: IL-2-induced pSTAT5 in hPBMC (flow cytometry, CD4 positive cells). It is filed as cell-based. Conditions: Homo sapiens, 4 ng/mL IL-2, CD4 positive cells. Here is the method: • 1) Preparation of culture medium: 1640 medium+10% fetal bovine serum+1% penicillin/streptomycin+1% non-essential amino acids (all percentages were v/v) • 2) Cells were thawed in a 37° C. water bath and then centrifuged. The cell concentration was adjusted to 5×10^5 cells/mL using the prepared culture medium. • 3) Cell suspension was seeded into a 96-well round-bottom plate at 200 μL/well and incubated at 37° C. for 90 minutes. • 4) Drugs were added, followed by a 37° C. incubation for 30 minutes. • 5) Cells were then stimulated by adding 10 ng/mL of IL-6 or 4 ng/mL of IL-2, followed by a 37° C. incubation for 15 minutes.
• 1) After completing the stimulation, cells were centrifuged and washed once with staining buffer (DPBS+2% bovine serum albumin). Antibodies were then added for a 30-minute staining process at 4° C. […]
• 1) Response %=[(MFI value of drug-treated well−mean MFI value of control well)/(mean MFI value of DMSO well−mean MFI value of control well)]*100% was calculated. • 2) The calculated Response % values were input into GraphPad Prism 8 software. […]

Consider `CN(c1ncnc2[nH]ccc12)[C@@H]1CCc2cc(C#N)nn2C1` [Compound I], for which the “cell infiltration, lesion area and demyelination compared with Fingolimod” value in assay [1] (10 mg/kg BID) is on record as “significantly better therapeutic effect than the positive drug Fingolimod group”. For the same compound, in assay [1] (all doses (3, 10, 20 mg/kg BID, 20 mg/kg QD)), the “damage to the spinal cord caused by EAE modeling” value is given as “significantly inhibited the damage to the spinal cord”. The pIC50 in assay [2] was 7.44.
